For orientation: IC50 means the concentration that inhibits the measured activity by half.

In brackets after ≈: the same amount, converted by molar mass.

In experiment [1] the target is T1, Procaspase-3 (Homo sapiens, UniProt P42574).
T1 sequence (P42574 1-277): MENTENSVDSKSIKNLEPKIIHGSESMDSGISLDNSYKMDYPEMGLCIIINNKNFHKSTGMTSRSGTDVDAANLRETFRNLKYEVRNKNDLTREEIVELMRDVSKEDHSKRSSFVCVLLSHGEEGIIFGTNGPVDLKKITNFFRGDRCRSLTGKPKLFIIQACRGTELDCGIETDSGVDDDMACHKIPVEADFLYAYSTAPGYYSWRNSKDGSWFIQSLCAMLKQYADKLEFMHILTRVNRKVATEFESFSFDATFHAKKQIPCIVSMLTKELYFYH
To be noted: both in vitro and in vivo; cited from earlier work.

The test system of experiment [2] is A549 (human non-small cell lung cancer). The experiment can be described thus: Antitumor activity assay in vitro (MTT). It is filed as cell-based. To be noted: Homo sapiens, A549 cells, 72 hours, Bliss method. The procedure: (§1) (1) Five cell strains, SK-N-SH (human neuroblastoma cell), NCI-H226 (human lung cancer cell), Bel7402 (human liver cancer cell), A549 (human non-small cell lung cancer), and MCF7 (human breast cancer cell), were thawed and stably passaged for two or three times, respectively, and then digested with trypsin solution (0.25%) so as to be removed from the bottom of culture flasks. The digested cell solution was poured into a centrifuge tube, to which culture media was added to stop the digestion. The centrifuge tube was centrifuged at 1300 r/min for 3 min, the supernatant was removed gently and then 5 mL culture media was added. The cells were pipetted and mixed homogeneously. 10 μL cell suspension was taken into a cell counting plate for counting, wherein the cell concentration was adjusted to 10^4 cells/well. Each well of the 96-well plates, except for A1 well as blank control, contained 100 μL cell suspension. The 96-well plates were placed in an incubator and cultivated for 24 hours.
(§2) (2) 50 μL dimethyl sulfoxide was used to dissolve the test samples, and then a suitable amount of culture media was added so as to reach a final concentration of 2 mg/mL. Then the samples were diluted to 100, 20, 4, 0.8, 0.16 μg/mL in a 24-well plate, respectively. […] The 96-well plates were placed in an incubator and cultivated for 72 hours.
(§3) (3) The culture media containing the compounds in the 96-well plates was discarded, and the cells were washed with phosphate buffered solution (PBS) twice. Each well was added with 100 μL MTT (tetrazole) (0.5 mg/mL), and then placed in an incubator to incubate for 4 hours, after which MTT solution was discarded and 100 μL dimethyl sulfoxide was added thereto. The reaction product of survival cells with MTT, i.e. formazan, was dissolved completely by oscillation on a magnetic oscillator, then placed into a microplate reader to measure the results, and the IC50 values of compounds could be deduced by Bliss method. The control, N′-[(2-hydroxy-3-allyl)phenylmethylene]-2-(4-benzylpiperazin-1-yl)acethydrazide(PAC-1), was produced according to the method of patent WO2008/134474 A2.

Experiment [3] has as its system Bel7402 (human liver cancer cell). The experiment can be described thus: Antitumor activity assay in vitro (MTT). It is filed as cell-based. Particulars: Homo sapiens, Bel-7402, Bel7402 cells, 72 hours, Bliss method. As for the experimental part: as §1, §2, §3
For experiment [4], the system named is NCI-H226 (human lung cancer cell). The experiment can be described thus: Antitumor activity assay in vitro (MTT). It is filed as cell-based. To be noted: Homo sapiens, NCI-H226 cells, 72 hours, Bliss method, read-out: IC50 NCI-226. As for the experimental part: as §1, §2, §3
In experiment [5] the test system is SK-N-SH (human neuroblastoma cell). The experiment can be described thus: Antitumor activity assay in vitro (MTT). The experiment is classed as cell-based. To be noted: Homo sapiens, SK-N-SH cells, 72 hours, Bliss method. As for the experimental part:
as §1, §2, §3

The test system of experiment [6] is MCF7 (human breast cancer cell). The experiment can be described thus: Antitumor activity assay in vitro (MTT). It is filed as cell-based. Particulars: Homo sapiens, MCF7 cells, 72 hours, Bliss method. The procedure: as §1, §2, §3
In experiment [7] the test system is cancer cells. To be noted: after treatment with PAC-1; cited from earlier work.

As to `C=CCc1cccc(/C=N/NC(=O)CN2CCN(Cc3ccccc3)CC2)c1O` [PAC-1, N′-[(2-hydroxy-3-allyl)phenylmethylene]-2-(4-benzylpiperazin-1-yl)acethydrazide, reference compound], the “activation of Procaspase-3” value in experiment [1] is given as “activate Procaspase-3 significantly”. The IC50 in experiment [2] was 1.9 µg/mL (≈ 4.84 µM); in experiment [3], 3.8 µg/mL (≈ 9.68 µM); in experiment [4] it was 1.7 µg/mL (≈ 4.33 µM); in experiment [5] it was 4.3 µg/mL (≈ 11 µM); in experiment [6], 2.6 µg/mL (≈ 6.62 µM). In experiment [7], the “time to induction of apoptosis of cancer cells after treatment” value is not above 23 h.

(Values after patent publication US9249106B2, “Substituted hydrazide compounds and use thereof” (Shenyang J & Health Pharmaceutical Co., Ltd., priority 2009, dated 2016).)
